Reference: patent US20140121373A1, “PROCESS FOR PREPARING STABLE POLYMORPHIC FORM OF ERLOTINIB HYDROCHLORIDE” (CADILA HEALTHCARE LIMITED, priority 2011, published 2014)

Assay: Polymorphic stability study of the stable form of Erlotinib hydrochloride (PXRD, DSC, IR on storage)
Type: physicochemical
Conditions: for DSC / IR / PXRD: should comply with data of stable polymorphic form
Description: (Refrigerator), 25° C.±2° C./60%±5% RH, 30° C.±2° C./65%±5% RH (Real Time) and 40° C.±2° C./75%±5% RH of the stable form of Erlotinib Hydrochloride.
• Powder X-ray Diffraction: X-ray powder diffraction spectrum was observed on a MF 2100 2 KW X-ray Powder diffractometer of make Rigaku having a Copper Kα-radiation at a voltage of 40 kV and 30 mA. Approximately 150 mg sample was gently flattened on a quartz plate without further processing (e.g. Grinding and sieving) and scanned from 4° to 40° at 0.010° sampling width and 4.000° per minute. • IR Spectroscopy: The IR spectra was performed on 8400S of make Shimadzu by using KBr pellet and recorded from 4000 to 400 cm^−1. About 2 mg of sample was triturated with 300 mg of finely powdered and dried potassium bromide. The mixture was carefully grinded, spread uniformly in a suitable die and submitted it in vacuum to a pressure of about 800 MPa […]. From the FTIR spectrum a blank FT-IR spectrum of KBr was subtracted. The blank IR spectrum was recorded prior to the measurement of the samples.
Differential Scanning Calorimetry (DSC): Melting points are determined by means of a DSC thermogram using a Pyris-1 make Perkin Elmer. DSC (Differential Scanning Calorimetry) is the technique of dynamic differential Calorimetry. Using this technique, the melting temperature can be measured by heating the sample until a thermal, i.e. an endothermic or exothermic, reaction is detected by means of ultrasensitive sensors. The DSC cell/sample chamber was purged with 100 ml/min of ultra-high purity nitrogen. The instrument was calibrated with high purity Indium. The sample was placed into an open aluminum DSC pan and measured against an empty reference pan. About 2 mg of sample being placed into the bottom of the pan and lightly tapped down to ensure good contact with the pan. The instrument was programmed to heat at a heating rate of 10° C./min in the temperature range between 50° C. and 300° C. • Microscope: A Lieca Microscope with Linkam Hot stage microscopy (TMS-94) system with polarized light, CCD camera and Linksys 32 data software. • HPLC: High Performance Liquid Chromatography Separation Module with PDA detector, Make Waters, Model No 2695. • KF: Moisture content was analyzed by using Karl Fisher Autotitrator 795 KFT Titrino make Metrohm.

[1] = 5° C. ± 3° C. (Refrigerator), Month 1
[2] = 5° C. ± 3° C. (Refrigerator), Month 2
[3] = 5° C. ± 3° C. (Refrigerator), Month 3
[4] = 5° C. ± 3° C. (Refrigerator), Month 6
[5] = 25° C. ± 2° C./60% ±5% RH, Month 1
[6] = 25° C. ± 2° C./60% ±5% RH, Month 2
[7] = 25° C. ± 2° C./60% ±5% RH, Month 3
[8] = 25° C. ± 2° C./60% ±5% RH, Month 6
[9] = 30° C. ± 2° C./65% ±5% RH (Real Time), Month 1
[10] = 30° C. ± 2° C./65% ±5% RH (Real Time), Month 2
[11] = 30° C. ± 2° C./65% ±5% RH (Real Time), Month 3
[12] = 30° C. ± 2° C./65% ±5% RH (Real Time), Month 6
[13] = 40° C. ± 2° C./75% ±5% RH, Month 1
[14] = 40° C. ± 2° C./75% ±5% RH, Month 2
[15] = 40° C. ± 2° C./75% ±5% RH, Month 3
[16] = 40° C. ± 2° C./75% ±5% RH, Month 6

- DSC [1]: Complies
- IR [1]: Complies
- PXRD [1]: Complies
- DSC [2]: Complies
- IR [2]: Complies
- PXRD [2]: Complies
- DSC [3]: Complies
- IR [3]: Complies
- PXRD [3]: Complies
- DSC [4]: Complies
- IR [4]: Complies
- PXRD [4]: Complies
- DSC [5]: Complies
- IR [5]: Complies
- PXRD [5]: Complies
- DSC [6]: Complies
- IR [6]: Complies
- PXRD [6]: Complies
- DSC [7]: Complies
- IR [7]: Complies
- PXRD [7]: Complies
- DSC [8]: Complies
- IR [8]: Complies
- PXRD [8]: Complies
- DSC [9]: Complies
- IR [9]: Complies
- PXRD [9]: Complies
- DSC [10]: Complies
- IR [10]: Complies
- PXRD [10]: Complies
- DSC [11]: Complies
- IR [11]: Complies
- PXRD [11]: Complies
- DSC [12]: Complies
- IR [12]: Complies
- PXRD [12]: Complies
- DSC [13]: Complies
- IR [13]: Complies
- PXRD [13]: Complies
- DSC [14]: Complies
- IR [14]: Complies
- PXRD [14]: Complies
- DSC [15]: Complies
- IR [15]: Complies
- PXRD [15]: Complies
- DSC [16]: Complies
- IR [16]: Complies
- PXRD [16]: Complies
SMILES: C#Cc1cccc(Nc2ncnc3cc(OCCOC)c(OCCOC)cc23)c1.Cl [Erlotinib hydrochloride, 4-(3-Ethynylphenylamino)-6,7-bis(2-methoxyethoxy)-quinazoline]
- retention of polymorphic and chemical identity on storage (both stability studies, all storage conditions): retained the same polymorphic and chemical identity at least up to six months
